From patent US6737383B1, “Herbicidal oxadiazolidines” (priority 1999, dated 2004)

Columns and labels:
sugar beet = test: Test B pre/postemergence sugar beet; type: in vivo, Beta vulgaris
Summary of the method: (§1)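 Herbicidal effect was estimated by eye on a ten-point control scale after plants spent twelve to sixteen days in a greenhouse following soil or foliar treatment. Foliar sprays targeted plants at one to four leaves; all doses were formulated in a non-phytotoxic solvent with surfactant.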

morningglory = test: Test B pre/postemergence morningglory; type: in vivo, Ipomoea hederacea
Summary of the method: as §1

wild oat = test: Test B pre/postemergence wild oat; type: in vivo, Avena fatua
Summary of the method: as §1

bedstraw = test: Test B pre/postemergence bedstraw; type: in vivo, Galium aparine; settings: Preemergence
Summary of the method: as §1

wheat = test: Test B pre/postemergence wheat; type: in vivo, Triticum aestivum
Summary of the method: as §1

surinam grass = test: Test B pre/postemergence surinam grass; type: in vivo, Brachiaria decumbens
Summary of the method: as §1

crabgrass = test: Test B pre/postemergence crabgrass; type: in vivo, Digitaria sanguinalis
Summary of the method: as §1

velvetleaf = test: Test B pre/postemergence velvetleaf; type: in vivo, Abutilon theophrasti
Summary of the method: as §1

rape = test: Test B pre/postemergence rape; type: in vivo, Brassica napus
Summary of the method: as §1

soybean = test: Test B pre/postemergence soybean; type: in vivo, Glycine max
Summary of the method: as §1

giant foxtail = test: Test B pre/postemergence giant foxtail; type: in vivo, Setaria faberii
Summary of the method: as §1

cocklebur = test: Test B pre/postemergence cocklebur; type: in vivo, Xanthium strumarium
Summary of the method: as §1

blackgrass = test: Test B pre/postemergence blackgrass; type: in vivo, Alopecurus myosuroides
Summary of the method: as §1

corn = test: Test B pre/postemergence corn; type: in vivo, Zea mays
Summary of the method: as §1

pigweed = test: Test B pre/postemergence pigweed; type: in vivo, Amaranthus retroflexus
Summary of the method: as §1

purple nutsedge = test: Test B pre/postemergence purple nutsedge; type: in vivo, Cyperus rotundus
Summary of the method: as §1

[1] = Postemergence, Rate 62 g/ha, scale of 0 to 10, 0 is no effect, 10 is complete control
[2] = Postemergence, Rate 500 g/ha, scale of 0 to 10 where 0 is no effect and 10 is complete control
[3] = Preemergence, Rate 62 g/ha, scale 0 to 10 (0 no effect, 10 complete control)
[4] = Preemergence, Rate 125 g/ha, scale 0 to 10, 0 is no effect, 10 is complete control
[5] = Preemergence, Rate 500 g/ha, scale of 0 to 10 where 0 is no effect and 10 is complete control
[6] = Postemergence, Rate 125 g/ha, scale 0 to 10, 0 is no effect, 10 is complete control
[7] = Rate 250 g/ha, Postemergence, scale of 0 to 10 where 0 is no effect and 10 is complete control

CC(C)N(C(=O)n1oc(=O)n(CCC(F)=C(F)F)c1=O)c1ccccc1 [Compound 566]
Sugarbeets plant response rating (sugar beet; [1]): 0
Plant response rating, Sugarbeets (sugar beet; [2]): 5
Sugarbeets plant response rating (sugar beet; [3]): 0
Sugarbeets plant response rating (sugar beet; [4]): 4
Sugarbeets plant response rating (0 to 10 scale) (sugar beet; Preemergence, Rate 250 g/ha): 6
Sugarbeets plant response rating (sugar beet; [5]): 6
Morningglory plant response rating (morningglory; [1]): 5
Morningglory plant response rating (morningglory; [6]): 5
Plant response rating, Morningglory (morningglory; [2]): 10
Morningglory plant response rating (morningglory; [3]): 0
Morningglory plant response rating (morningglory; [4]): 0
Morningglory plant response rating (0 to 10 scale) (morningglory; Preemergence, Rate 250 g/ha): 0
Morningglory plant response rating (morningglory; [5]): 0
Plant response rating, Morningglory (morningglory; [7]): 6
Wild oats plant response rating (wild oat; [1]): 0
Plant response rating, Wild oats (wild oat; [2]): 4
Wild oats plant response rating (wild oat; [3]): 3
Wild oats plant response rating (wild oat; [4]): 9
Wild oats plant response rating (0 to 10 scale) (wild oat; Preemergence, Rate 250 g/ha): 8
Wild oats plant response rating (wild oat; [5]): 10
Plant response rating, Wild oats (wild oat; [7]): 0
Bedstraw plant response rating (bedstraw; Rate 62 g/ha, scale 0 to 10 (0 no effect, 10 complete control)): 0
Bedstraw plant response rating (bedstraw; Rate 125 g/ha, scale 0 to 10, 0 is no effect, 10 is complete control): 0
Bedstraw plant response rating (0 to 10 scale) (bedstraw; Rate 250 g/ha): 0
Bedstraw plant response rating (bedstraw; Rate 500 g/ha, scale of 0 to 10 where 0 is no effect and 10 is complete control): 0
Wheat plant response rating (wheat; [1]): 0
Plant response rating, Wheat (wheat; [2]): 4
Wheat plant response rating (wheat; [3]): 0
Wheat plant response rating (wheat; [4]): 6
Wheat plant response rating (0 to 10 scale) (wheat; Preemergence, Rate 250 g/ha): 6
Wheat plant response rating (wheat; [5]): 7
Plant response rating, Wheat (wheat; [7]): 0
B. signalgrass plant response rating (surinam grass; [1]): 2
B. signalgrass plant response rating (surinam grass; [6]): 8
Plant response rating, B. signalgrass (surinam grass; [2]): 9
B. signalgrass plant response rating (surinam grass; [3]): 9
B. signalgrass plant response rating (surinam grass; [4]): 9
B. signalgrass plant response rating (0 to 10 scale, 0 is no effect, 10 is complete control) (surinam grass; Preemergence, Rate 250 g/ha): 10
B. signalgrass plant response rating (surinam grass; [5]): 9
Plant response rating, B. signalgrass (surinam grass; [7]): 8
Crabgrass plant response rating (crabgrass; [1]): 2
Crabgrass plant response rating (crabgrass; [6]): 8
Plant response rating, Crabgrass (crabgrass; [2]): 9
Crabgrass plant response rating (crabgrass; [3]): 9
Crabgrass plant response rating (crabgrass; [4]): 9
Crabgrass plant response rating (0 to 10 scale) (crabgrass; Preemergence, Rate 250 g/ha): 9
Crabgrass plant response rating (crabgrass; [5]): 10
Plant response rating, Crabgrass (crabgrass; [7]): 10
Velvetleaf plant response rating (velvetleaf; [1]): 3
Plant response rating, Velvetleaf (velvetleaf; [2]): 5
Velvetleaf plant response rating (velvetleaf; [3]): 0
Velvetleaf plant response rating (velvetleaf; [4]): 0
Velvetleaf plant response rating (0 to 10 scale) (velvetleaf; Preemergence, Rate 250 g/ha): 0
Velvetleaf plant response rating (velvetleaf; [5]): 2
Plant response rating, Velvetleaf (velvetleaf; [7]): 5
Rape plant response rating (rape; [1]): 0
Rape plant response rating (rape; [6]): 0
Plant response rating, Rape (rape; [2]): 9
Rape plant response rating (rape; [3]): 0
Rape plant response rating (rape; [4]): 0
Rape plant response rating (0 to 10 scale) (rape; Preemergence, Rate 250 g/ha): 7
Rape plant response rating (rape; [5]): 10
Plant response rating, Rape (rape; [7]): 9
Soybean plant response rating (soybean; [1]): 4
Plant response rating, Soybean (soybean; [2]): 6
Soybean plant response rating (soybean; [3]): 0
Soybean plant response rating (soybean; [4]): 0
Soybean plant response rating (0 to 10 scale) (soybean; Preemergence, Rate 250 g/ha): 0
Soybean plant response rating (soybean; [5]): 0
Plant response rating, Soybean (soybean; [7]): 6
Giant foxtail plant response rating (giant foxtail; [1]): 0
Giant foxtail plant response rating (giant foxtail; [6]): 8
Plant response rating, Giant foxtail (giant foxtail; [2]): 9
Giant foxtail plant response rating (giant foxtail; [3]): 9
Giant foxtail plant response rating (giant foxtail; [4]): 10
Giant foxtail plant response rating (0 to 10 scale) (giant foxtail; Preemergence, Rate 250 g/ha): 10
Giant foxtail plant response rating (giant foxtail; [5]): 10
Plant response rating, Giant foxtail (giant foxtail; [7]): 8
Cocklebur plant response rating (cocklebur; [1]): 2
Cocklebur plant response rating (cocklebur; [6]): 2
Plant response rating, Cocklebur (cocklebur; [2]): 3
Cocklebur plant response rating (cocklebur; [3]): 0
Cocklebur plant response rating (cocklebur; [4]): 0
Cocklebur plant response rating (0 to 10 scale) (cocklebur; Preemergence, Rate 250 g/ha): 0
Cocklebur plant response rating (cocklebur; [5]): 0
Plant response rating, Cocklebur (cocklebur; [7]): 2
Blackgrass plant response rating (blackgrass; [1]): 0
Blackgrass plant response rating (blackgrass; [6]): 2
Plant response rating, Blackgrass (blackgrass; [2]): 6
Blackgrass plant response rating (blackgrass; [3]): 3
Blackgrass plant response rating (blackgrass; [4]): 9
Blackgrass plant response rating (0 to 10 scale) (blackgrass; Preemergence, Rate 250 g/ha): 10
Blackgrass plant response rating (blackgrass; [5]): 10
Plant response rating, Blackgrass (blackgrass; [7]): 3
Corn plant response rating (corn; [1]): 0
Corn plant response rating (corn; [6]): 0
Plant response rating, Corn (corn; [2]): 2
Corn plant response rating (corn; [3]): 0
Corn plant response rating (corn; [4]): 2
Corn plant response rating (0 to 10 scale) (corn; Preemergence, Rate 250 g/ha): 2
Corn plant response rating (corn; [5]): 9
Plant response rating, Corn (corn; [7]): 2
Redroot pigweed plant response rating (pigweed; [1]): 3
Plant response rating, Redroot pigweed (pigweed; [2]): 5
Redroot pigweed plant response rating (pigweed; [3]): 0
Redroot pigweed plant response rating (pigweed; [4]): 9
Redroot pigweed plant response rating (0 to 10 scale) (pigweed; Preemergence, Rate 250 g/ha): 9
Redroot pigweed plant response rating (pigweed; [5]): 10
Nutsedge plant response rating (purple nutsedge; [1]): 0
Nutsedge plant response rating (purple nutsedge; [6]): 0
Plant response rating, Nutsedge (purple nutsedge; [2]): 0
Nutsedge plant response rating (purple nutsedge; [3]): 0
Nutsedge plant response rating (purple nutsedge; [4]): 0
Nutsedge plant response rating (0 to 10 scale) (purple nutsedge; Preemergence, Rate 250 g/ha): 0
Nutsedge plant response rating (purple nutsedge; [5]): 0
